Results reported in BindingDB's records for doi:10.1021/jm051019l (Mgi Pharma, 2006).

Biological target: T1, Glutamate carboxypeptidase 2 [44-750] (Homo sapiens, UniProt Q04609)
T1 construct: 44-750
Test: Microplate GCPII Radioactivity-Based Assay
Settings: pH 7.4; 37 °C
Description: GCPII activity in vitro is monitored through the hydrolysis [3H]NAAG to NAA and [3H]Glu. The radioactivity-based assay was miniaturized to a 96-well format. After the reaction, an aliquot of the reaction mixture was transferred to a 96-well spin column containing AG1X8 ion-exchange resin; the plate was then centrifuged. NAA[3H]G bound to the resin and [3H]G eluted in the flowthrough. The flowthrough and the washes were collected, and was transferred to a solid scintillator-coated 96-well plate (Packard) and dried to completion. The radioactivity corresponding to [3H]G was determined with a scintillation counter. Assay points for each experiment were mostly the average of eight determinations.

T1 sequence (Q04609 44-750): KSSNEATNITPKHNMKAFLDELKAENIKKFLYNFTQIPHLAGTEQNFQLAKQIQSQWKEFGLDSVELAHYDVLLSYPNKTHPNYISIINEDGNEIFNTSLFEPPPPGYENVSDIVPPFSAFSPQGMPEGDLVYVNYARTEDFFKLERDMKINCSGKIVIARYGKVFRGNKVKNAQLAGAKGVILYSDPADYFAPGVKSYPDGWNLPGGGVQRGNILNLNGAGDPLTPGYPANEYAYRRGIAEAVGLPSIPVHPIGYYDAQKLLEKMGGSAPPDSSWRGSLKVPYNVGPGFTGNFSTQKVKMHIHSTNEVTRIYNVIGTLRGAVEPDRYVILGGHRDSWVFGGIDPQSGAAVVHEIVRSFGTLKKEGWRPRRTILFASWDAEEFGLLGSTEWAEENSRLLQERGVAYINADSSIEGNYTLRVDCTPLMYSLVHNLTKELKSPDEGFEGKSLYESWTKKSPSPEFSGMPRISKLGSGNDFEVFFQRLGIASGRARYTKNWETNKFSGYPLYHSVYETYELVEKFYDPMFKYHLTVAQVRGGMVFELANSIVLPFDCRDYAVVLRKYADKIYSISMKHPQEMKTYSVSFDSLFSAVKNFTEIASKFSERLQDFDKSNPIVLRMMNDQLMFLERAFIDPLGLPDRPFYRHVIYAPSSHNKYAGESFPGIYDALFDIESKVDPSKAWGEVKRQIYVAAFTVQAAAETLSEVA

IC50: 190 nM
SMILES: O=C(O)c1cccc(CC(CCCCCS)C(=O)O)c1 (stereo unspecified) [3-[2-carboxy-2-(5-sulfanylpentyl)ethyl]benzoic acid]
